Columns and labels:
[1] = molecular target: human Nav1.5 (Homo sapiens (Human), UniProt Q14524); experiment: Human Nav1.5 inhibitory activity evaluation (automated patch clamp QPatch16X, HEK293 cells stably expressing human Nav1.5); assay type: cell-based; details: HEK293 cells stably expressing human Nav1.5, automated patch clamp QPatch16X
Experimental: Test Example 2: Human Nav1.5 Inhibitory Activity Evaluation
A cell line in which human Nav1.5 was stably expressed in HEK293 cells was used. DMEM supplemeted with 15% fetal bovine serum, 500 μg/ml geneticin, 100 units/ml penicillin, 100 μg/ml streptomycin, 20 mM HEPES was used as culture medium under the conditions of 37° C. and 5% CO2 in T175 flasks to carry out culturing. When 60-80% confluence was reached, a cell suspension of about 0.5-5.0×10^6 cells/mL was prepared. The amount of current through human Nav1.5 was recorded using a fully automatic patch clamp device QPatch16X at room temperature. As the extracellular solution, 145 mM NaCl, 4 mM KCl, 1 mM MgCl2, 2 mM CaCl2, 10 mM Glucose, and 10 mM HEPES at pH 7.4 was used. As the intracellular solution, 135 mM CsF, ⅕ mM EGTA/CsOH, 10 mM HEPES, and 10 mM NaCl at pH 7.3 was used. The test compounds were dissolved in DMSO and diluted with the extracellular solution to attend the DMSO concentration of 0.1% at the time of assay.
The current response was obtained at a sampling frequency of 25 kHz, and noise was removed with a 3 kHz low-pass filter. The holding potential was −80 mV. Correction of the leakage current was carried out by applying a step pulse of −100 mV before the test pulse. In order to investigate human Nav1.5 inhibitory effect of the test compound, test pulses imitating the action potential of cardiomyocytes were continuously given 20 times. The test pulses were given before and after the test compound addition.
The inhibitory activity of the test compound was determined based on the amount of inward current generated by the 20th depolarization pulse, and the 50% inhibitory concentration (IC50) was calculated from the concentration-response curve.

[2] = molecular target: human Nav1.7 (Homo sapiens (Human), UniProt Q15858); experiment: Human Nav1.7 inhibitory activity evaluation (automated patch clamp QPatch16X, HEK293A cells stably expressing human Nav1.7 and human Navβ1); assay type: cell-based; details: human Nav1.7, automated patch clamp
Sequence of human Nav1.7 (Q15858 whole entry): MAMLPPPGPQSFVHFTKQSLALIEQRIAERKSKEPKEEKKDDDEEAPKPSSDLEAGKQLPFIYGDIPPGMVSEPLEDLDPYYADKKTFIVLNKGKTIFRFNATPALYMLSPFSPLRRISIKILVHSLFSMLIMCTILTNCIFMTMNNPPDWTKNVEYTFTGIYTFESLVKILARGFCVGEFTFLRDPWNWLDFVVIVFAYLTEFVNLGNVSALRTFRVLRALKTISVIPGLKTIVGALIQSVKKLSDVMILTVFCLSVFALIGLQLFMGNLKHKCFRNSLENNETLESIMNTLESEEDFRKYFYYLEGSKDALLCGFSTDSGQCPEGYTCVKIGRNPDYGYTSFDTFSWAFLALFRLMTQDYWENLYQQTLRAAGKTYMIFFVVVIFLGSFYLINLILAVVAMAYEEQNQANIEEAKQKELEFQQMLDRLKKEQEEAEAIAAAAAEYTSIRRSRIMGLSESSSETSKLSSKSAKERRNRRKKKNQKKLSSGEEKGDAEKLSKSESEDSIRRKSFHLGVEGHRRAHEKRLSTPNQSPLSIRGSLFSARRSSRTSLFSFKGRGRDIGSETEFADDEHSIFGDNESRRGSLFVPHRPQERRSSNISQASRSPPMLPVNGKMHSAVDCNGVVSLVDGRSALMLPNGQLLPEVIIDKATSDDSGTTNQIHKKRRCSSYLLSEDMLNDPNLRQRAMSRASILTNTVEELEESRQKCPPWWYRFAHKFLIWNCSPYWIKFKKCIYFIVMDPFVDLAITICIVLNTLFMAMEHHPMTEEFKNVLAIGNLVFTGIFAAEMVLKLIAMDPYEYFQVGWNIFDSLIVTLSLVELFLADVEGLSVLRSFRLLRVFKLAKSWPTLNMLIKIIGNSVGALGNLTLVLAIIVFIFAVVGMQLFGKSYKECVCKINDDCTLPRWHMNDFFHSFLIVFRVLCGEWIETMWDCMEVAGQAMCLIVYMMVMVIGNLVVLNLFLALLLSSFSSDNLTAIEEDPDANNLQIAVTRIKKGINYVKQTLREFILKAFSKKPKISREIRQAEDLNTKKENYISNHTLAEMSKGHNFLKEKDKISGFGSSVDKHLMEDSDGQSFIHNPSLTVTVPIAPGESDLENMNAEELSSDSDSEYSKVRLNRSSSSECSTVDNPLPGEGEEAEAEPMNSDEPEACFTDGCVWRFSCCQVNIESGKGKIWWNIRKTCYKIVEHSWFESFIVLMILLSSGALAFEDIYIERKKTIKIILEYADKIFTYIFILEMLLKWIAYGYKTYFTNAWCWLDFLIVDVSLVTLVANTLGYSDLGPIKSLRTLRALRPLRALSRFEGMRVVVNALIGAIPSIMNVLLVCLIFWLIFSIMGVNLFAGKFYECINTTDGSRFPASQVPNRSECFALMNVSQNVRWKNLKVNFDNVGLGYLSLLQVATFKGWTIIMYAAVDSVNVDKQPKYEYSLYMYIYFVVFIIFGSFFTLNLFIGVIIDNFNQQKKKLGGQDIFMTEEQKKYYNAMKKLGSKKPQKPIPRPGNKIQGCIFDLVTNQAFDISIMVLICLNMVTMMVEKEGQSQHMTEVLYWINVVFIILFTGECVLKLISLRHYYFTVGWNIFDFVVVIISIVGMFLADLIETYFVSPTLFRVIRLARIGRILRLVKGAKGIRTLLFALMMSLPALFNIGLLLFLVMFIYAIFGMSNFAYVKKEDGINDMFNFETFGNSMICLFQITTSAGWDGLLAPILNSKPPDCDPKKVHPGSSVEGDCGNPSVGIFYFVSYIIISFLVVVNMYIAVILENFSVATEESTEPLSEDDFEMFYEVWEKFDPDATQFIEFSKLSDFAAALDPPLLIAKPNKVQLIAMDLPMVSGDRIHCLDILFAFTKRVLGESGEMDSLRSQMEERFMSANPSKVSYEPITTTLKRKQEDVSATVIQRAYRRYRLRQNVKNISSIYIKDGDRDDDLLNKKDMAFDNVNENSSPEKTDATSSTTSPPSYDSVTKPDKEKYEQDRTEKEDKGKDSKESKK
Sequence of human Nav1.7 (Q07699 19-218 partner): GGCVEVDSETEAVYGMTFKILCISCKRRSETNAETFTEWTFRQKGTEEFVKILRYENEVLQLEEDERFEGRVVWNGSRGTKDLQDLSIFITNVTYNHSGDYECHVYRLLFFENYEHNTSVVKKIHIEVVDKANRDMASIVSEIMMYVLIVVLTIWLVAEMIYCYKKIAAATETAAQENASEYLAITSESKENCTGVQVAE
Method in brief: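 IC50 calculated from the concentration-response of inward current evoked by the second −10 mV, 50 ms depolarisation, which follows a 15 s conditioning step at roughly 30-40% inactivation and a 100 ms −120 mV interval. Cells: HEK293A expressing human Nav1.7/Navβ1, automated patch clamp, room temperature, 0.1% DMSO final.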

Sequence of human Nav1.5 (Q14524 whole entry): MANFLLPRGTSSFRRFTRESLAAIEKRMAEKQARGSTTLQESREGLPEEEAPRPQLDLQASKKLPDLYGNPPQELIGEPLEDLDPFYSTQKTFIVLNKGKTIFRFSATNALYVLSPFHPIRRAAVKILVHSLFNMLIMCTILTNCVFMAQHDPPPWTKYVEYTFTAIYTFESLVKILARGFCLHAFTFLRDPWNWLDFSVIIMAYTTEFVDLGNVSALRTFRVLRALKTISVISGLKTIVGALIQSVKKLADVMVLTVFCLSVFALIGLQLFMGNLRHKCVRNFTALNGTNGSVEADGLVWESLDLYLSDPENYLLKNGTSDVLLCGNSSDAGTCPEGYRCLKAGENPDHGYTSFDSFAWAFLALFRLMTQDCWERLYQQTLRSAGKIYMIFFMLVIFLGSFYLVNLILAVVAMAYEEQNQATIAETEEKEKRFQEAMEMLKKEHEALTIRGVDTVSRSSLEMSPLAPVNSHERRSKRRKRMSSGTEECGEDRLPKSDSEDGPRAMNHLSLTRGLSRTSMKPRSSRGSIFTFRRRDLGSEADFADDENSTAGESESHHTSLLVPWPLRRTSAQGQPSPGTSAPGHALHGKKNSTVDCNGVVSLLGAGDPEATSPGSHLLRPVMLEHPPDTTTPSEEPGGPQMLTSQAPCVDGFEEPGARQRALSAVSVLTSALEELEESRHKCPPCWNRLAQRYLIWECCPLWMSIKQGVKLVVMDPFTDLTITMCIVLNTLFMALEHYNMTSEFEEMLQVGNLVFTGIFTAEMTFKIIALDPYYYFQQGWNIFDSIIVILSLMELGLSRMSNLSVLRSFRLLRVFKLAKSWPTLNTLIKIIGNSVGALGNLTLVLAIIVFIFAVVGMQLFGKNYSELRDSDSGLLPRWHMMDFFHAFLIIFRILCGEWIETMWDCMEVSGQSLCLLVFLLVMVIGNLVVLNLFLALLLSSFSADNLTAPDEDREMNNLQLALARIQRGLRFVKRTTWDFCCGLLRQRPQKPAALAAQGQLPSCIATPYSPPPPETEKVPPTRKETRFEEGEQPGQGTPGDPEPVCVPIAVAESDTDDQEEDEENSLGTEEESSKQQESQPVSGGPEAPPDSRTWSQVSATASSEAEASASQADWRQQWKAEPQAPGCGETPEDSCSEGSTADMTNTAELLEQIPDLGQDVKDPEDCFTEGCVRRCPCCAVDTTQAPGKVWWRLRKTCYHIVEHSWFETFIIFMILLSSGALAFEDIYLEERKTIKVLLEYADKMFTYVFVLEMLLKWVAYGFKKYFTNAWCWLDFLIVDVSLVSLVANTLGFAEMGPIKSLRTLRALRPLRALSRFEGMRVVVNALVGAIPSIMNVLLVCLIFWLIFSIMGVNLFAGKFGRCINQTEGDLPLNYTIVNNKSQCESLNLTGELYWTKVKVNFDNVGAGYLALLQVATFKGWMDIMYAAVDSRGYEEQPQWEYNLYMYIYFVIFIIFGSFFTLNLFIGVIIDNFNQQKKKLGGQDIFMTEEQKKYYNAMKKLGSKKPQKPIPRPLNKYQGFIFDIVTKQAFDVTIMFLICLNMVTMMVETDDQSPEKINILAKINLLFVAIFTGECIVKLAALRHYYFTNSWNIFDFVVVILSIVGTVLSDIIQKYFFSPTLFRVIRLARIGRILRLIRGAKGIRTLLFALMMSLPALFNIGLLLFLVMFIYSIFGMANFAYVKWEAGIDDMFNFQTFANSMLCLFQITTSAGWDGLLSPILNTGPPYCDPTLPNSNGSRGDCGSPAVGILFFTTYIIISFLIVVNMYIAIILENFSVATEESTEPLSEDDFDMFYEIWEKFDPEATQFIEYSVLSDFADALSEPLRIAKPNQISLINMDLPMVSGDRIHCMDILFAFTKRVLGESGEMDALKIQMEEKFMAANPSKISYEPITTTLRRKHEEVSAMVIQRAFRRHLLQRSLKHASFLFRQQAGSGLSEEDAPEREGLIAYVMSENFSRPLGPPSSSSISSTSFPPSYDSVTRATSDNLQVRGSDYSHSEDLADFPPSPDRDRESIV

Row | SMILES | IC50 [1] [µM] | IC50 [2] [µM]
1 | CCCC1CCn2nc(C(=O)N[C@H]3COc4ccc(C#N)cc4C3)cc2O1 (single isomer, unassigned) [95 (isomer B)] | ≥ 3 | –
2 | N#Cc1ccc2c(c1)C[C@@H](NC(=O)c1cc3n(n1)CC(CCC1CCOCC1)O3)CO2 (stereo partly drawn) [Example 623] | – | < 1
3 | O=C(N[C@H]1COc2ccc(C(F)(F)F)cc2C1F)c1cc2n(n1)CCC(COCC(F)F)O2 (stereo partly drawn) [Example 624] | – | < 1
4 | O=C(N[C@H]1COc2ccc(C(F)(F)F)cc2C1F)c1cc2n(n1)CCN(CCOC1CCC1)C2 (stereo partly drawn) [Example 625] | – | < 1
5 | O=C(NC1COc2ccc(F)c(F)c2C1)c1cc2n(n1)CCC(C(F)(F)F)O2 (stereo not drawn) [Example 626] | – | < 10
6 | O=C(NC1COc2ccc(F)c(F)c2C1)c1cc2n(n1)CCC(COCC(F)(F)F)O2 (stereo not drawn) [Example 627] | – | < 10
7 | O=C(NC1COc2ccc(F)c(F)c2C1)c1cc2n(n1)CC(CCCOCC(F)(F)F)O2 (stereo not drawn) [Example 628] | – | < 1
8 | O=C(NC1COc2ccc(F)c(F)c2C1)c1cc2n(n1)CC(CCOCC(F)(F)F)O2 (stereo not drawn) [Example 629] | – | < 1
9 | O=C(N[C@H]1COc2ccc(COCC(F)(F)F)cc2C1)c1cc2n(n1)CCC(C1CCOC1)O2 (stereo partly drawn) [Example 630] | – | < 1
10 | O=C(N[C@H]1COc2ccc(COCC(F)(F)F)cc2C1)c1cc2n(n1)CCC(C1COCCO1)O2 (stereo partly drawn) [Example 631] | – | < 1
11 | O=C(N[C@H]1COc2ccc(COCC(F)(F)F)cc2C1)c1cc2n(n1)CCC(C(F)(F)F)CO2 (stereo partly drawn) [Example 632] | – | < 1
12 | O=C(N[C@H]1COc2ccc(CC(F)F)cc2C1)c1cc2n(n1)CCC(C(F)(F)F)CO2 (stereo partly drawn) [Example 633] | – | < 1
13 | O=C(N[C@H]1COc2ccc(C(F)(F)F)cc2C1F)c1cc2n(n1)CCC(COCC(F)(F)F)CO2 (stereo partly drawn) [Example 634] | – | < 1
14 | O=C(N[C@H]1COc2ccc(COCC(F)(F)F)cc2C1)c1cc2n(n1)CCC(COCC(F)F)O2 (stereo partly drawn) [Example 635] | – | < 1
15 | O=C(N[C@H]1COc2ccc(C(F)(F)F)cc2C1F)c1cc2n(n1)CCN(C1CCOCC1)C2 (stereo partly drawn) [Example 637] | – | < 10
16 | O=C(N[C@H]1COc2ccc(COCC(F)(F)F)cc2C1)c1cc2n(n1)CCC(C1COCCO1)O2 (stereo partly drawn) [Example 638] | – | < 10
17 | O=C(NC1COc2ccc(F)c(F)c2C1)c1cc2n(n1)CC(CCOCC1CC1)O2 (stereo not drawn) [Example 639] | – | < 1
18 | O=C(NC1COc2ccc(F)c(F)c2C1)c1cc2n(n1)CC(CCCOCC(F)F)O2 (stereo not drawn) [Example 640] | – | < 1
19 | O=C(N[C@H]1COc2ccc(C(F)(F)F)cc2C1F)c1cc2n(n1)CCN(CC1CCOCC1)C2 (stereo partly drawn) [Example 642] | – | < 10

Row | SMILES | IC50 [1] [µM] | IC50 [2] [µM]
20 | O=C(N[C@H]1COc2ccc(C(F)(F)F)cc2C1F)c1cc2n(n1)CCN(C1COC1)C2 (stereo partly drawn) [Example 643] | – | < 10
21 | O=C(N[C@H]1COc2ccc(C(F)(F)F)cc2C1)c1cc2n(n1)CCN(CCOCC(F)(F)F)C2 [Example 644] | – | < 1
22 | O=C(N[C@H]1COc2ccc(C(F)(F)F)cc2C1F)c1cc2n(n1)CCN(CCOCC(F)(F)F)C2 (stereo partly drawn) [Example 645] | – | < 1
23 | O=C(N[C@H]1COc2ccc(C(F)(F)F)cc2C1F)c1cc2n(n1)CCN(CC1CCO1)C2 (stereo partly drawn) [Example 646] | – | < 1
24 | O=C(N[C@H]1COc2ccc(C(F)(F)F)cc2C1F)c1cc2n(n1)CCN(CCC(F)(F)F)C2 (stereo partly drawn) [Example 647] | – | < 1
25 | N#Cc1ccc2c(c1)C(F)[C@@H](NC(=O)c1cc3n(n1)CCC(C(F)(F)F)O3)CO2 (stereo partly drawn) [Example 648] | – | < 10
26 | N#Cc1ccc2c(c1)C(F)[C@@H](NC(=O)c1cc3n(n1)CCC(C(F)(F)F)CO3)CO2 (stereo partly drawn) [Example 649] | – | < 10
27 | N#Cc1ccc2c(c1)C(F)[C@@H](NC(=O)c1cc3n(n1)CC(CCOCC1CC1)O3)CO2 (stereo partly drawn) [Example 650] | – | < 1
28 | O=C(N[C@H]1COc2ccc(COCC(F)(F)F)cc2C1)c1cc2n(n1)CCC(C1CCCO1)O2 (stereo partly drawn) [Example 651] | – | < 1
29 | O=C(N[C@H]1COc2ccc(C(F)(F)F)cc2C1O)c1cc2n(n1)CCN(CCOCC1CC1)C2 (stereo partly drawn) [Example 652] | – | < 10
30 | O=C(N[C@H]1COc2ccc(C(F)(F)F)cc2C1)c1cc2n(n1)CCN(CC1CCOCC1)C2 [Example 653] | – | < 10
31 | O=C(N[C@H]1COc2ccc(C(F)(F)F)cc2C1F)c1cc2n(n1)CCN(CCOCC1CC1)C2 (stereo partly drawn) [Example 654] | – | < 1
32 | O=C(N[C@H]1COc2ccc(COCC(F)(F)F)cc2C1)c1cc2n(n1)CCC(CC1CCOCC1)O2 (stereo partly drawn) [Example 655] | – | < 1
33 | CCC1(O)CCn2nc(C(=O)N[C@H]3COc4ccc(C(F)(F)F)cc4C3F)cc2OC1 (stereo partly drawn) [Example 656] | – | < 10
34 | O=C(N[C@H]1COc2ccc(C(F)(F)F)cc2C1)c1cc2n(n1)CC(COCCOCC(F)(F)F)O2 (stereo partly drawn) [Example 657] | – | < 1
35 | O=C(N[C@H]1COc2ccc(Cl)cc2C1)c1cc2n(n1)CC(COCCOCC(F)(F)F)O2 (stereo partly drawn) [Example 658] | – | < 1
36 | N#Cc1ccc2c(c1)C[C@@H](NC(=O)c1cc3n(n1)CC(COCCOCC(F)(F)F)O3)CO2 (stereo partly drawn) [Example 659] | – | < 10
37 | O=C(N[C@H]1COc2ccc(C(F)(F)F)cc2C1O)c1cc2n(n1)CC(COCCOCC(F)(F)F)O2 (stereo partly drawn) [Example 660] | – | < 10
38 | O=C(N[C@H]1COc2ccc(COCC(F)(F)F)cc2C1)c1cc2n(n1)CC(COCCOCC(F)(F)F)O2 (stereo partly drawn) [Example 661] | – | < 1

Row | SMILES | IC50 [1] [µM] | IC50 [2] [µM]
39 | O=C(N[C@H]1COc2ccc(Cl)cc2C1)c1cc2n(n1)CCC(COCCOCC(F)(F)F)O2 (stereo partly drawn) [Example 662] | – | < 1
40 | O=C(N[C@H]1COc2ccc(C(F)(F)F)cc2C1)c1cc2n(n1)CCC(COCCOCC(F)(F)F)O2 (stereo partly drawn) [Example 663] | – | < 1
41 | N#Cc1ccc2c(c1)C[C@@H](NC(=O)c1cc3n(n1)CCC(COCCOCC(F)(F)F)O3)CO2 (stereo partly drawn) [Example 664] | – | < 10
42 | O=C(N[C@H]1COc2ccc(C(F)(F)F)cc2C1F)c1cc2n(n1)CCC(COCCOCC(F)(F)F)O2 (stereo partly drawn) [Example 665] | – | < 1
43 | O=C(N[C@H]1COc2ccc(C(F)(F)F)cc2C1)c1cc2n(n1)CCN(CCOCC(F)F)C2 [Example 666] | – | < 10
44 | O=C(N[C@H]1COc2ccc(COCC(F)(F)F)cc2C1)c1cc2n(n1)CCN(CCOCC(F)(F)F)C2 [Example 667] | – | < 1
45 | O=C(N[C@H]1COc2ccc(CC(F)F)cc2C1)c1cc2n(n1)CCC(C1CCCO1)O2 (stereo partly drawn) [Example 668] | – | < 10
46 | O=C(N[C@H]1COc2ccc(C(F)(F)F)cc2C1)c1cc2n(n1)CCN(CC1CCOC1)C2 (stereo partly drawn) [Example 669] | – | < 10
47 | O=C(N[C@H]1COc2ccc(C(F)(F)F)cc2C1F)c1cc2n(n1)CCN(C1CCOC1)C2 (stereo partly drawn) [Example 670] | – | < 1
48 | CC(C)OCCN1CCn2nc(C(=O)N[C@H]3COc4ccc(C(F)(F)F)cc4C3F)cc2C1 (stereo partly drawn) [Example 671] | – | < 1
49 | O=C(N[C@H]1COc2ccc(C(F)(F)F)cc2C1F)c1cc2n(n1)CCN(CC1CCCOC1)C2 (stereo partly drawn) [Example 672] | – | < 1
50 | O=C(N[C@H]1COc2ccc(C(F)(F)F)cc2C1F)c1cc2n(n1)CCN(CC1CCOC1)C2 (stereo partly drawn) [Example 673] | – | < 1
51 | O=C(N[C@H]1COc2ccc(CC(F)F)cc2C1)c1cc2n(n1)CCC(CC1CCOCC1)O2 (stereo partly drawn) [Example 674] | – | < 10
52 | O=C(N[C@H]1COc2ccc(C(F)(F)F)cc2C1F)c1cc2n(n1)CC(COCCOCC(F)(F)F)O2 (stereo partly drawn) [Example 676] | – | < 1
53 | O=C(N[C@H]1COc2ccc(C(F)(F)F)cc2C1O)c1cc2n(n1)CCN(CCOCC(F)(F)F)C2 (stereo partly drawn) [Example 677] | – | < 10
54 | O=C(N[C@H]1COc2ccc(C(F)(F)F)cc2C1F)c1cc2n(n1)CCN(CCOCC(F)F)C2 (stereo partly drawn) [Example 678] | – | < 1
55 | O=C(N[C@H]1COc2ccc(C(F)(F)F)cc2C1F)c1cc2n(n1)CCC(OCC(F)(F)F)CO2 (stereo partly drawn) [Example 679] | – | < 1
56 | O=C(N[C@H]1COc2ccc(C(F)(F)F)cc2C1)c1cc2n(n1)CCC(OCCOCC(F)(F)F)CO2 (stereo partly drawn) [Example 680] | – | < 10
57 | O=C(N[C@H]1COc2ccc(Cl)cc2C1)c1cc2n(n1)CCC(OCCOCC(F)(F)F)CO2 (stereo partly drawn) [Example 682] | – | < 10

Reference: US12421225B2, “Heteroaromatic amide derivative and medicament containing the same” (KAKEN PHARMACEUTICAL CO., LTD., priority 2018, dated 2025)
